According to US9796733B2, “Imidazo-pyrazine derivatives useful as soluble guanylate cyclase activators” (Merck Sharp & Dohme Corp., priority 2014, dated 2017):
pEC50: −log10 of the molar value.

Experiments:
[1] = test system: Spontaneously hypertensive rats (SHR); test: Acute efficacy in spontaneously hypertensive rats (SHR): telemetry blood pressure lowering after a single oral dose; type: in vivo, rat
Outline: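 Values are the maximum peak fall in systolic pressure after one oral dose (mpk), computed hourly against baseline from a vehicle dose given the day before. Rats were conscious, male, spontaneously hypertensive, with femoral-aortic telemetry recording 30 s every 10 min, 14 days post-surgery.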

sGC α1/β1 heterodimer = target: T1, sGC α1/β1 heterodimer (Homo sapiens, UniProt Q02108+Q02153); test: Cell-based sGC functional assay (CASA assay): cGMP generation in CHO-K1/sGC cells, HTRF detection; details: for Emax: CHO-K1, percent activation relative to standard Compound A in CHO-K1/sGC cells, read-out: % Act.; for pEC50: inflection point (IP) of cGMP generation in CHO-K1/sGC cells, 4P fit, activity expressed as percentage of Compound A
T1 construct: expressed in transfected cells; host or cells: CHO-K1 (clone #7, CHO-K1/sGC)
T1 sequence (Q02108 1-690): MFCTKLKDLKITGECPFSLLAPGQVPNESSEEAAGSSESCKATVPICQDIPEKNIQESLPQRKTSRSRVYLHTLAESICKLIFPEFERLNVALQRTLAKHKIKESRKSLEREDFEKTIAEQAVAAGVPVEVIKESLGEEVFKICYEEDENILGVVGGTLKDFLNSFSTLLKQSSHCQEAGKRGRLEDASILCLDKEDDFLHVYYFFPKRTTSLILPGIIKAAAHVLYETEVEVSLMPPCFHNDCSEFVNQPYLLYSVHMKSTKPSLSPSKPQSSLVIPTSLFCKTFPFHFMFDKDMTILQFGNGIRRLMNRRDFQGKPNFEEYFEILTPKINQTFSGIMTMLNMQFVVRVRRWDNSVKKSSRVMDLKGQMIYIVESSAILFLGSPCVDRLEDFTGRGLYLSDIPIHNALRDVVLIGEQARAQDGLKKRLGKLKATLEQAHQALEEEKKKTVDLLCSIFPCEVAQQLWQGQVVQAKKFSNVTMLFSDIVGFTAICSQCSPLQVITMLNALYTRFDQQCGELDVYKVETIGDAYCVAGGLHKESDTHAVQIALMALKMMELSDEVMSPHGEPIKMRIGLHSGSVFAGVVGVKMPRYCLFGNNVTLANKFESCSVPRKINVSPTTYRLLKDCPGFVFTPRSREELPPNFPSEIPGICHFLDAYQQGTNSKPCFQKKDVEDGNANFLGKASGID
T1 sequence (Q02153 1-619): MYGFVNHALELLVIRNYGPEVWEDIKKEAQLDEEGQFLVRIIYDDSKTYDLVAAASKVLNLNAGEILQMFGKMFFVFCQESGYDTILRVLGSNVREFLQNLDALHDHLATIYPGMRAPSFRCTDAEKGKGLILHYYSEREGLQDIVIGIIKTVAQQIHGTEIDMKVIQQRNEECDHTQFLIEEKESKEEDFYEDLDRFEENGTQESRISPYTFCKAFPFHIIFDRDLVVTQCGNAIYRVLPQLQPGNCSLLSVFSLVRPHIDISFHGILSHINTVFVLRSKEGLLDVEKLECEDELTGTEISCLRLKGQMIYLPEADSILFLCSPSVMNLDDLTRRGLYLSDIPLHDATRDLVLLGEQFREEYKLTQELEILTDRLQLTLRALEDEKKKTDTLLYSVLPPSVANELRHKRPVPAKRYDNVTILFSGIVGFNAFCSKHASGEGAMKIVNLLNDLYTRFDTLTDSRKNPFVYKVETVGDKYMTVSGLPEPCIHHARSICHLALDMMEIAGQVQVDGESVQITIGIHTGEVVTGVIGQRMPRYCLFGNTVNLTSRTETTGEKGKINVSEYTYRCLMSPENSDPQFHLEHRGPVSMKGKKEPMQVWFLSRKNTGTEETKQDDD
Outline: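 cGMP was quantified by HTRF after 1 hr, 37° C exposure of thawed CHO-K1 cells expressing sGC α1/β1 to compound, with or without 1 μM DETA-NO. IBMX (0.5 mM) blocked cGMP breakdown, and DMSO was 2.5% final. Percent of standard Compound A's maximal cGMP was fitted (4P) for inflection point.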

Emax (sGC α1/β1 heterodimer)	pEC50 (sGC α1/β1 heterodimer)	Compound	Maximum peak decrease of systolic blood pressure (SBP) in SHR, Cat. ([1]; P.O. 0.3 mpk)	Maximum peak decrease of systolic blood pressure (SBP) in SHR, Cat. ([1]; P.O. 3.0 mpk)	Maximum peak decrease of systolic blood pressure (SBP) in SHR, Cat. ([1]; P.O. 1.0 mpk)	Maximum peak decrease of systolic blood pressure (SBP) in SHR, Cat. ([1]; P.O. 0.1 mpk)
117%	6.82	CCC1(c2ccc(Cl)cc2)C(=O)Nc2nc(-c3cn4ccnc4c(CCC(F)(F)C(F)(F)F)n3)nc(N)c21 (stereo not drawn) [Example 247B, 4-amino-5-(4-chlorophenyl)-5-ethyl-2-(8-(3,3,4,4,4-pentafluorobutyl)imidazo [1,2-a]pyrazin-6-yl)-5H-pyrrolo[2,3-d]pyrimidin-6(7H)-one]	A (Category A=SBP in SHRs<20 mmHg)			
96%	6.12	CCC1(c2ccc(F)cn2)C(=O)Nc2nc(-c3cn4ccnc4c(CCC(F)(F)C(F)(F)F)n3)nc(N)c21 (stereo not drawn) [Example 249A, 4-amino-5-ethyl-5-(5-fluoropyridin-2-yl)-2-(8-(3,3,4,4,4-pentafluorobutyl)imidazo [1,2-a]pyrazin-6-yl)-5H-pyrrolo[2,3-d]pyrimidin-6(7H)-one]		B (Category B=SBP in SHRs 20-40 mmHg)		
87%	6.77	CCCc1ccc(C2(C)C(=O)Nc3nc(-c4cn5ccnc5c(CCC(F)(F)C(F)(F)F)n4)nc(N)c32)cn1 (stereo not drawn) [Example 250B, 4-amino-5-methyl-2-(8-(3,3,4,4,4-pentafluorobutyl)imidazo [1,2-a]pyrazin-6-yl)-5-(6-propylpyridin-3-yl)-5H-pyrrolo[2,3-d]pyrimidin-6(7H)-one]		A (Category A=SBP in SHRs<20 mmHg)		
85%	7.00	CC(C)c1ccc(C2(C)C(=O)Nc3nc(-c4cn5ccnc5c(CCC(F)(F)C(F)(F)F)n4)nc(N)c32)cn1 (stereo not drawn) [Example 251B, 4-amino-5-(6-isopropylpyridin-3-yl)-5-methyl-2-(8-(3,3,4,4,4-pentafluorobutyl)imidazo [1,2-a]pyrazin-6-yl)-5H-pyrrolo[2,3-d]pyrimidin-6(7H)-one]		B (Category B=SBP in SHRs 20-40 mmHg)		
83%	7.29	CC1(c2ccc(C3CC3)nn2)C(=O)Nc2nc(-c3cn4ccnc4c(CCC(F)(F)C(F)(F)F)n3)nc(N)c21 (stereo not drawn) [Example 253B, 4-amino-5-(6-cyclopropylpyridazin-3-yl)-5-methyl-2-(8-(3,3,4,4,4-pentafluorobutyl)imidazo [1,2-a]pyrazin-6-yl)-5H-pyrrolo[2,3-d]pyrimidin-6(7H)-one]			A (Category A=SBP in SHRs<20 mmHg)	
126%	7.24	CC1(c2ccc(F)cc2)C(=O)Nc2nc(-c3cn4c(Br)cnc4c(CCC(F)(F)C(F)(F)F)n3)nc(N)c21 (stereo not drawn) [Example 254A, 4-amino-2-(3-bromo-8-(3,3,4,4,4-pentafluorobutyl)imidazo [1,2-a]pyrazin-6-yl)-5-(4-fluorophenyl)-5-methyl-5H-pyrrolo[2,3-d]pyrimidin-6(7H)-one]			C (Category C=SBP in SHRs>40 mmHg)	
142%	7.49	CC1(c2ccc(F)cc2)C(=O)Nc2nc(-c3cn4c(Cl)cnc4c(CCC(F)(F)C(F)(F)F)n3)nc(N)c21 (stereo not drawn) [Example 255A, 4-amino-2-(3-chloro-8-(3,3,4,4,4-pentafluorobutyl)imidazo [1,2-a]pyrazin-6-yl)-5-(4-fluorophenyl)-5-methyl-5H-pyrrolo[2,3-d]pyrimidin-6(7H)-one]			C (Category C=SBP in SHRs>40 mmHg)	
123%	6.62	CC1(c2ccc(F)cc2)C(=O)Nc2nc(-c3cn4c(Br)cnc4c(CCC(F)(F)F)n3)nc(N)c21 (stereo not drawn) [Example 264A, 4-amino-2-(3-bromo-8-(3,3,3-trifluoropropyl)imidazo[1,2-a]pyrazin-6-yl)-5-(4-fluorophenyl)-5-methyl-5H-pyrrolo[2,3-d]pyrimidin-6(7H)-one]			A (Category A=SBP in SHRs<20 mmHg)	
83%	6.91	CC1(c2ccc(Cl)cc2)C(=O)Nc2nc(-c3cn4ccnc4cn3)nc(NCCC(F)(F)C(F)(F)F)c21 (stereo not drawn) [Example 286A, 5-(4-chlorophenyl)-2-(imidazo[1,2-a]pyrazin-6-yl)-5-methyl-4-((3,3,4,4,4-pentafluorobutyl)amino)-5H-pyrrolo[2,3-d]pyrimidin-6(7H)-one]		A (Category A=SBP in SHRs<20 mmHg)		
106%	6.55	CNc1nc(-c2cn3ccnc3c(CCC(F)(F)C(F)(F)F)n2)nc2c1C(C)(c1ccc(F)cn1)C(=O)N2 (stereo not drawn) [Example 290B, 5-(5-fluoropyridin-2-yl)-5-methyl-4-(methylamino)-2-(8-(3,3,4,4,4-pentafluorobutyl)imidazo[1,2-a]pyrazin-6-yl)-5H-pyrrolo[2,3-d]pyrimidin-6(7H)-one]		B (Category B=SBP in SHRs 20-40 mmHg)		
92%	7.54	CN1CCN(c2nc(-c3cn4ccnc4c(CCC(F)(F)C(F)(F)F)n3)nc3c2C(C)(c2ccc(F)cc2)C(=O)N3)CC1 (stereo not drawn) [Example 311A, 5-(4-fluorophenyl)-5-methyl-4-(4-methylpiperazin-1-yl)-2-(8-(3,3,4,4,4-pentafluorobutyl)imidazo[1,2-a]pyrazin-6-yl)-5H-pyrrolo[2,3-d]pyrimidin-6(7H)-one]	A (Category A=SBP in SHRs<20 mmHg)			
104%	6.36	CCc1nc(-c2nc(N)c3c(n2)NC(=O)C3(C)c2ccc(Cl)c(F)c2)cn2ccnc12 (stereo not drawn) [Example 314B, 4-amino-5-(4-chloro-3-fluorophenyl)-2-(8-ethylimidazo[1,2-a]pyrazin-6-yl)-5-methyl-5H-pyrrolo[2,3-d]pyrimidin-6(7H)-one]		B (Category B=SBP in SHRs 20-40 mmHg)		
113%	6.92	CC(C)Cc1nc(-c2nc(N)c3c(n2)NC(=O)C3(c2ccc(Cl)c(F)c2)C2CC2)cn2ccnc12 (stereo not drawn) [Example 315A, 4-amino-5-(4-chloro-3-fluorophenyl)-5-cyclopropyl-2-(8-isobutylimidazo[1,2-a]pyrazin-6-yl)-5H-pyrrolo[2,3-d]pyrimidin-6(7H)-one]		B (Category B=SBP in SHRs 20-40 mmHg)		
156%	7.54	Nc1nc(-c2cn3ccnc3c(CCCC(F)(F)F)n2)nc2c1C(c1ccc(Cl)cc1)(C1CC1)C(=O)N2 (stereo not drawn) [Example 316B, 4-amino-5-(4-chlorophenyl)-5-cyclopropyl-2-(8-(4,4,4-trifluorobutyl)imidazo[1,2-a]pyrazin-6-yl)-5H-pyrrolo[2,3-d]pyrimidin-6(7H)-one]	B (Category B=SBP in SHRs 20-40 mmHg)			
156%	7.12	Nc1nc(-c2cn3ccnc3c(CCCC(F)(F)F)n2)nc2c1C(c1ccc(F)c(F)c1)(C1CC1)C(=O)N2 (stereo not drawn) [Example 317A, 4-amino-5-cyclopropyl-5-(3,4-difluorophenyl)-2-(8-(4,4,4-trifluorobutyl)imidazo[1,2-a]pyrazin-6-yl)-5H-pyrrolo[2,3-d]pyrimidin-6(7H)-one]				B (Category B=SBP in SHRs 20-40 mmHg)
